“Also recorded” adds a separate entry of the source.
System: CD3+ cells
Test: CD3+ cell (T cell) infiltration by immunohistochemistry, acute GVHD mouse model
Type: in vivo, mice
Conditions: Fosaprepitant 10 mg/mL topically six times a day; day 29; p<0.001
Method: 10-week-old male BALB/C and C57BL/6N mice (Charles River Laboratory, Lecco, Italy) were used for all the experiments (n=5/each group). All mice were free from ocular surface disease at baseline. The housing conditions were controlled (temperature 22° C., light from 07:00-19:00, humidity 50%-60%), and fresh food and water were freely available. The animals were monitored 3 times per week for 28 days post-transplantation for in vivo slit-lamp microscopy imaging, ocular surface score and systemic GVHD score (FIG. 11A). Carbon dioxide inhalation and subsequent cervical dislocation were applied to euthanize the animals. All the experiments were approved by the Animal Care and Use Committee of the IRCCS San Raffaele Scientific Institute, in accordance with the ARVO Statement for the Use of Animals in Ophthalmic and Vision Research.
Allogenic BMT was conducted using the C57BL/6N and BALB/c mice as transplant donors and recipients, respectively. The recipient mice received total body irradiation (TBI) (900 cGy divided in two fractions) from a Cs source 1 day before the transplantation. The donor C57BL/6N mice were sacrificed on dry ice and they femur and spleen were harvested. The bones were gently crushed manually using a sterile stick, and bone marrow (BM) cells were released by mixing the fragments of bones with RPMI. The suspension of BM cells was filtered to remove the impurities inside. The spleens were also gently crushed into a cell suspension and filtered. Inventors suspended the BM cells and splenic cells with RPMI and adjusted the density of cells to 1×10^6/[…] and 2×10^6/[…], respectively. […]
Mice were sacrificed 28 days after BM transplantation (Day 29 post irradiation) by carbon dioxide inhalation. […] Following three washes with PBS-T, sections were incubated in anti-goat HRP for 15 minutes and then detected with a goat-on-rodent HRP-Polymer Kit (Biocare Medical). Primary antibody labeling was detected using brown DAB substrate (Vector Laboratories, Burlingame, Calif., USA). […]

C[C@@H](O[C@H]1OCCN(Cc2nc(=O)n(P(=O)(O)O)[nH]2)[C@H]1c1ccc(F)cc1)c1cc(C(F)(F)F)cc(C(F)(F)F)c1 [Fosaprepitant, [3-{[(2R,3S)-2-[(1R)-1-[3,5-bis(trifluoromethyl)phenyl]ethoxy]-3-(4-fluorophenyl)morpholin-4-yl]methyl}-5-oxo-2H-1,2,4-triazol-1-yl]phosphonic acid]
CD3+ cells infiltrating the conjunctiva: reduced; also recorded: significantly decreased
CD3+ cells infiltrating the cornea: reduced; also recorded: significantly decreased
CD3+ cells infiltrating the lacrimal gland: reduced; also recorded: significantly decreased
